Assay results: patent US20110172217A1, “RING-FUSED MORPHOLINE DERIVATIVE HAVING PI3K-INHIBITING ACTIVITY” (Shionogi & Co., Ltd., priority 2008, published 2011)

Tests used:
[1] = system: Salmonella typhimurium TA98 line, TA100 line; assay: Fat Test (mutagenicity in Salmonella typhimurium); format: cell-based; parameters: key: When the mutagenicity is negative, the compound is shown as (−); When positive, the compound is shown as (+); conditions: TA98 and TA100 lines, non-metabolism-activation and metabolism-activation conditions
Description: 20 μL of Salmonella enterica subsp. typhimurium (Salmonella typhimurium TA98 line, TA100 line) cryopreserved was inoculated to 10 mL of liquid nutrient medium (2.5% Oxoid nutrient broth No. 2) and then precultured at 37° C. for 10 hours with shaking. Regarding TA98 line, after 9 mL of a bacterial suspension was centrifuged (2000×g, 10 minutes) to remove the culture solution, the bacteria was suspended in 9 mL of Micro F buffer solution (K2HPO4: 3.5 g/L, KH2PO4: 1 g/L, (NH4)2SO4: 1 g/L, tri-sodium citric acid dihydrate: 0.25 g/L, MgSO4.7H2O: 0.1 g/L), and then added to 110 mL of Exposure media (Micro F buffer solution containing biotin: 8 μg/mL, histidine: 0.2 μg/mL, glucose: 8 mg/mL). Regarding TA 100 line, 120 mL of Exposure media was added to 3.16 mL of the bacterial suspension to prepare a test bacterial suspension. 12 μL of a solution of a test substance in DMSO (diluted eight times in a common ratio of 2 from the maximum dose of 50 mg/mL); 12 μL of DMSO as a negative control; 50 μg/mL 4-nitroquinoline-1-oxide solution in DMSO for TA98 line or 0.25 μg/mL 2-(2-furyl)-3-(5-nitro-2-furyl)acrylamide solution in DMSO as a positive control for TA 100 line in the case of a non-metabolism-activation condition; 12 μL of 40 μg/mL 2-aminoanthracene solution in DMSO for TA98 line or 20 μg/mL of 2-aminoanthracene solution in DMSO for TA100 line in the case of a metabolism-activation condition; were each mixed with 588 μL of the test bacterial suspension (in the case of a metabolism activation condition, a mixed solution of 498 μL of the test bacterial suspension and 90 μL S9 mix) and then cultured at 37° C. at 90 minutes with shaking. 460 μL of the bacterial suspension to which a test substance was exposed was mixed with 2300 μL of Indicator media (a Micro F buffer solution containing 8 μg/mL biotin, 0.2 μg/mL histidine, 8 mg/mL glucose, and 37.5 μg/mL bromocresol purple). […] Thus, in 48 wells per dose, the number of the bacteria-proliferation wells in which the color changed to yellow was counted, compared with a group of negative controls, and then evaluated. […]

[2] = Solubility test in artificial intestinal juice pH 6.8; format: physicochemical; conditions: kinetic from dmso stock, artificial intestinal juice pH 6.8, 1% DMSO, 25° C.
Description: The solubility of a compound was determined under a condition in which 1% DMSO was added. 10 mmol/L compound solution was prepared using DMSO, and then 6 μL of the compound solution was added to 594 μL of artificial intestinal juice in pH 6.8 (to 250 mL of 0.2 mol/L potassium dihydrogen phosphate reagent solution was added 118 mL of 0.2 mol/L NaOH reagent solution and water to provide a final volume of 1000 mL). After standing at 25° C. for 16 hours, the mixed solution was filtered with suction. The filtrate was diluted twice with methanol/water (1/1), and then a concentration in the filtration was measured with HPLC or LC/MS/MS by the absolute calibration method.

[3] = biological target: PI-3 kinase γ (Homo sapiens, UniProt P48736); assay: PI3Kγ inhibitory activity, PI3-kinase HTRF assay (inhibition ratio); format: biochemical; conditions: 0.5 h, compound at 50 μmol/L
Chain of PI-3 kinase γ (P48736 whole entry): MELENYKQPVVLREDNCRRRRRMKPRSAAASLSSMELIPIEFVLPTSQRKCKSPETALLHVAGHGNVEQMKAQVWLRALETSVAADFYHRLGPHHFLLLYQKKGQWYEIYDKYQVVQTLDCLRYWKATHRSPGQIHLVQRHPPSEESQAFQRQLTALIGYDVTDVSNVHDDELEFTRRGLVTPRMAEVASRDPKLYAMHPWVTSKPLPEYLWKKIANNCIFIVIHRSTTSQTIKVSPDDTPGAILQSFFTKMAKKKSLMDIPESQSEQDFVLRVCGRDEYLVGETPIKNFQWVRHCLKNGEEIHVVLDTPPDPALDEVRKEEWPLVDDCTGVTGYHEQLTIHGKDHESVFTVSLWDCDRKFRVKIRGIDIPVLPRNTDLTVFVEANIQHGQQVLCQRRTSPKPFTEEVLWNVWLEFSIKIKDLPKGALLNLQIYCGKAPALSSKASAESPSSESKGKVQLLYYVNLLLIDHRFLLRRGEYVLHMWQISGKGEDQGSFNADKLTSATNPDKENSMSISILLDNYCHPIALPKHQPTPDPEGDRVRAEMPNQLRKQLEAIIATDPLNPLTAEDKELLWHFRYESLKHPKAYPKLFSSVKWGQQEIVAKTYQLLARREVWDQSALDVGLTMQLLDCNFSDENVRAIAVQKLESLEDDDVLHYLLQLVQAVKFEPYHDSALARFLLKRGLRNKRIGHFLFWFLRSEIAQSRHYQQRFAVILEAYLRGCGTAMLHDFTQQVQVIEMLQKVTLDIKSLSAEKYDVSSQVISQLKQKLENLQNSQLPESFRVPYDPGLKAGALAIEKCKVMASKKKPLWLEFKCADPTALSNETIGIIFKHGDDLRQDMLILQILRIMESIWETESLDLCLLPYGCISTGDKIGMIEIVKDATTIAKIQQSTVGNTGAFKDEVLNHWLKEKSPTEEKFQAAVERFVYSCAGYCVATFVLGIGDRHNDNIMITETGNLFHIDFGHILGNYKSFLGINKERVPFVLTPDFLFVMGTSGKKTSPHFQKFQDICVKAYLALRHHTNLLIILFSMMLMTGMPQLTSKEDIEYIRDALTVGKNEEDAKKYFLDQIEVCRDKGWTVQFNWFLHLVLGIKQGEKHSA
Method in brief: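 Human PI3Kγ was preincubated 10 min with compound and PIP2 substrate, then reacted 30 min at room temperature with ATP (40 μmol/L in the added solution); EDTA/biotin-PIP3 quenched. HTRF 665/620 nm ratio read after 18 h, normalized to no-compound (100%) and no-enzyme (0%) controls, gave % inhibition at 50 or 10 μmol/L compound.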

[4] = biological target: T1, human ether-a-go-go related gene (hERG) channel (Homo sapiens, UniProt Q12809); assay: hERG test, whole-cell patch-clamp, IKr; format: cell-based; conditions: 1 μmol/L compound; HEK293 cell expressing hERG
T1 construct: expressed in transfected cells; host or cells: HEK293
T1 sequence (Q12809 whole entry): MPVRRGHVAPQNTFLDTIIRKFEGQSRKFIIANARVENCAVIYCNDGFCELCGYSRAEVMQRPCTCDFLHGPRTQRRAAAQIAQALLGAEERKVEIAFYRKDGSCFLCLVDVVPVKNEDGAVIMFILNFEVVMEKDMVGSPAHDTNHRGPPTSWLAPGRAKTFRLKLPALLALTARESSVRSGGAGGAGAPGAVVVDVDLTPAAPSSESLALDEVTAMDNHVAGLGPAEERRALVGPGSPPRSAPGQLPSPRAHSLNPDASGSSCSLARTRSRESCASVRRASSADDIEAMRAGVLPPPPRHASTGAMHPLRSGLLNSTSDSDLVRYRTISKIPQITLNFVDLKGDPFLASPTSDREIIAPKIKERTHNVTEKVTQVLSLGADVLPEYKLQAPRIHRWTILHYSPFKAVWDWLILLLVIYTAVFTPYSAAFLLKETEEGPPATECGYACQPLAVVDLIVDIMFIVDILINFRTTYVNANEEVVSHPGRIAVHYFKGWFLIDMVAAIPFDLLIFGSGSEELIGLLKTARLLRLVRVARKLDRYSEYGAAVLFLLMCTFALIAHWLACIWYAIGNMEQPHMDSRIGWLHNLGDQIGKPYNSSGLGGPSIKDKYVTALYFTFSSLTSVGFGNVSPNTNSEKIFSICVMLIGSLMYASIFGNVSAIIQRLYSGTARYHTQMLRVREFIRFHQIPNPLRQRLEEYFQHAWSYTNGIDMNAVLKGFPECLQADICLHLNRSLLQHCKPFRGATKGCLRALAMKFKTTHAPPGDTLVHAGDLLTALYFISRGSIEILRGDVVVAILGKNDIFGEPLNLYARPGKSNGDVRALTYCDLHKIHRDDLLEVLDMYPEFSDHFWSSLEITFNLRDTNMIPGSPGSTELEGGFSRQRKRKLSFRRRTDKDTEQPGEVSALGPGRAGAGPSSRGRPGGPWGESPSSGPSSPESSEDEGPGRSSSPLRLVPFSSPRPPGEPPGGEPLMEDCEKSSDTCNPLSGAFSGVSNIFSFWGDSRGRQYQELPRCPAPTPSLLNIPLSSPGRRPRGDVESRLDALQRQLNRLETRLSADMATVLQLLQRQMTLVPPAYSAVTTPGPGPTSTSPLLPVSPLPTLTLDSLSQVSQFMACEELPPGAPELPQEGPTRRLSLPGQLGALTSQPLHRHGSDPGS
Description: For the purpose of risk evaluation of QT interval extension of electrocardiogram, the activity on delayed rectification K^+ current (IKr), which plays an important role in a cardiac ventricle repolarization process, was examined using the HEK293 cell that was made to express human ether-a-go-go related gene (hERG) channel.
Using an automatic patch-clamp system (PatchXpress 7000A, Axon Instruments Inc.), by a whole-cell patch-clamp method, after the cell was maintained at a membrane potential of −80 mV, IKr induced upon applying depolarizing stimulation of +50 mV for 2 seconds and further applying repolarizing stimulation of −50 mV for 2 seconds was recorded. After generated electric current became stable, a test substance dissolved at an intended concentration in extracellular fluid (137 mmol/L NaCl, 4 mmol/L KCl, 1.8 mmol/L CaCl2.2H2O, 1 mmol/L MgCl2.6H2O, 10 mmol/L glucose, 10 mmol/L HEPES (4-(2-hydroxyethyl)-1-piperazineethanesulfonic acid), pH=7.4) was applied to the cell for 10 minutes under room temperature condition. From the obtained IKr, the absolute value of the maximum tail current was measured using analysis software (DataXpress ver. 1, Molecular Devices Corporation) and the value of the electric current in a maintained membrane potential as baseline. Moreover, an inhibition ratio for the maximum tail current prior to the application of the test substance was calculated and then compared with a group of media-application (0.1% dimethylsulfoxide solution) to evaluate influence of the test substance on IKr.

Question: Which mutagenicity [1] does the source give for `CC1SC(N2CCOc3cccnc32)=NC1=O` (stereo not drawn) [Compound I-1] here?
Answer: (−)

Question: What about the solubility at 16 h [2] of the same molecule?
Answer: > 50 µM

Question: What about the inhibition at 50 µM [3] of the same molecule?
Answer: 87%

Question: Which results are given for `O=C(O)c1cccc(Nc2cnc3c(c2)OCCN3C(=O)Nc2ccccc2)c1` [Compound I-138]?
Answer: mutagenicity [1]: (−); solubility at 16 h [2]: > 50 µM; hERG inhibition ratio for the maximum tail current (IKr) [4]: 11.1%
